Common to all, as to format: toxicity, cell-based
One series concerns Fibroblast. The series can be described thus: Incucyte cell viability with human fibroblast. The conditions noted are these: 10 µM, compound concentration 10 uM.
The subject of another series is U2OS. The experiment in a line: Incucyte cell viability with U2OS. The conditions noted are these: human, 10 µM, compound concentration 10 uM.
The test system of the next series is HEK-293T. The experiment in a line: Incucyte cell viability with HEK293T. The note with it: human, 10 µM, compound concentration 10 uM.
Setting [1] is: 6 h, replicate number 1, timepoint 6 hours.
Where [2] appears, read: 12 h, replicate number 1, timepoint 12 hours.
Where [3] appears, read: 18 h, replicate number 1, timepoint 18 hours.
[4] abbreviates: 24 h, replicate number 1, timepoint 24 hours.
Setting [5] is: 0 h, replicate number 2, timepoint 0 hours.
Where [6] appears, read: 6 h, replicate number 2, timepoint 6 hours.
[7] abbreviates: 0 h, replicate number 1, timepoint 0 hours.
Where [8] appears, read: 24 h, replicate number 2, timepoint 24 hours.
Setting [9] is: 18 h, replicate number 2, timepoint 18 hours.
The mark [10] stands for this setting: 12 h, replicate number 2, timepoint 12 hours.
Note: filed as whole numbers so only -1 and 0 and 1 occur.

Regarding `C#C[C@]1(O)CC[C@H]2[C@@H]3CCc4cc(O)ccc4[C@H]3CC[C@@]21C` [ETHINYL ESTRADIOL], the “Growth Rate” value in the series with Fibroblast (setting [1]), in the series with Fibroblast (setting [2]), in the series with Fibroblast (setting [3]), in the series with Fibroblast (setting [4]), in the series on U2OS (setting [5]) and in the series on U2OS (setting [1]) was 0 each time. Besides, the “Growth Rate” value in the series on U2OS (setting [6]) is given as 1; with U2OS (setting [2]) it was 0; in the series on U2OS (setting [3]) it was 0; in the series on U2OS (setting [4]) it was 0; with HEK-293T (setting [7]), -1; in the series with HEK-293T (setting [5]) it was 0. In addition, the “Growth Rate” value in the series on HEK-293T (setting [8]) came out at 1.

With `Cc1nnc2c3ccccc3c(N[C@@H](C)[C@H](c3ccccc3)N(C)C)nn12`, the “Growth Rate” value with Fibroblast (setting [7]) is 0; with Fibroblast (setting [1]), 1; with Fibroblast (setting [6]), 0; in the series with Fibroblast (setting [2]), 1; with Fibroblast (setting [3]), 1; with Fibroblast (setting [9]) it was 0. The “Growth Rate” value in the series with Fibroblast (setting [4]) turned out to be 1; with Fibroblast (setting [8]), 0; with U2OS (setting [7]), 0; in the series with U2OS (setting [1]), 0; in the series on U2OS (setting [6]), 1; in the series on U2OS (setting [2]), 1. For the same molecule, the “Growth Rate” value with U2OS (setting [3]) came out at 1; in the series on U2OS (setting [4]), 1; in the series with HEK-293T (setting [7]) it was 0; with HEK-293T (setting [5]), 1; in the series on HEK-293T (setting [1]) it was 0; in the series on HEK-293T (setting [2]) it was 0. For the same molecule, the “Growth Rate” value in the series on HEK-293T (setting [3]) and with HEK-293T (setting [4]) was 0 in each case.

For the molecule `COc1cc(N2CCC(N3CCN(C)CC3)CC2)ccc1Nc1ncc(Cl)c(Nc2ccccc2P(C)(C)=O)n1` [BRIGATINIB], the “Growth Rate” value with Fibroblast (setting [7]) was 1; with Fibroblast (setting [1]), 0; in the series on Fibroblast (setting [2]) it was 0; in the series on Fibroblast (setting [3]), 0; with Fibroblast (setting [4]), 0; with U2OS (setting [7]), 0. The “Growth Rate” value is 0 with U2OS (setting [1]); 0 with U2OS (setting [2]); 1 with U2OS (setting [10]); 0 in the series with U2OS (setting [3]); 0 in the series with U2OS (setting [4]); 0 in the series on HEK-293T (setting [1]). The “Growth Rate” value with HEK-293T (setting [2]) amounted to 0; in the series with HEK-293T (setting [3]), 1; in the series with HEK-293T (setting [4]), 1; in the series on HEK-293T (setting [8]) it was 0.

Consider `N[C@@H](Cc1cc(I)c(Oc2ccc(O)c(I)c2)c(I)c1)C(=O)O` [LIOTHYRONINE], for which the “Growth Rate” value with Fibroblast (setting [7]) came to 0; with Fibroblast (setting [1]), 0; with Fibroblast (setting [2]), 0; with Fibroblast (setting [3]), 0; in the series with Fibroblast (setting [9]), 1; in the series on Fibroblast (setting [4]) it was 0. Moreover, the “Growth Rate” value in the series with Fibroblast (setting [8]) is recorded as 1; with U2OS (setting [7]), 0; in the series with U2OS (setting [6]) it was 1; in the series with U2OS (setting [2]), 1; in the series with U2OS (setting [3]) it was 1; in the series with U2OS (setting [4]), 1. Moreover, the “Growth Rate” value in the series on HEK-293T (setting [7]) worked out at 0; with HEK-293T (setting [1]), 1; with HEK-293T (setting [2]) it was 1; with HEK-293T (setting [10]) it was 0; in the series on HEK-293T (setting [3]), 1; in the series on HEK-293T (setting [9]), 0. For the same molecule, the “Growth Rate” value in the series with HEK-293T (setting [4]) is reported as 1; in the series on HEK-293T (setting [8]), 0.

(Values after ChEMBL document CHEMBL4689842, “EUbOPEN Chemogenomics Library wave 1” (2021).)
